Data on eleven compounds can be found in paper PMC13210772, “Dual FLT3/MAPK14 Proteolysis-Targeting Chimera (PROTAC) Induces Potent Acute Myeloid Leukemia Cell Death” (Pharmaceuticals, 2026).

Usually IC50 stands for the concentration that gives 50% inhibition. A word on the EC50: it is the concentration at which the effect is half-maximal. A higher EC50 goes with a need for much substance.

The structures appear in SMILES notation.

In one series the test system is MV4-11. Set-up: method as in PMID 30427680, PMID 34959180, PMID 34694800, PMID 36332882, PMID 38655686. The note with it: reported FLT3 PROTACs, Figure 1; cited from earlier work.
The next series has as its system MOLM-13. Set-up: method as in PMID 30427680, PMID 34959180, PMID 34694800, PMID 36332882, PMID 38655686. Conditions: reported FLT3 PROTACs, Figure 1; cited from earlier work.
For series [1], the target named is T1, FLT3-ITD (Homo sapiens, UniProt P36888, INS600HVDFREYEYD).
T1 sequence (P36888 with tags, fused parts or gaps INS600HVDFREYEYD): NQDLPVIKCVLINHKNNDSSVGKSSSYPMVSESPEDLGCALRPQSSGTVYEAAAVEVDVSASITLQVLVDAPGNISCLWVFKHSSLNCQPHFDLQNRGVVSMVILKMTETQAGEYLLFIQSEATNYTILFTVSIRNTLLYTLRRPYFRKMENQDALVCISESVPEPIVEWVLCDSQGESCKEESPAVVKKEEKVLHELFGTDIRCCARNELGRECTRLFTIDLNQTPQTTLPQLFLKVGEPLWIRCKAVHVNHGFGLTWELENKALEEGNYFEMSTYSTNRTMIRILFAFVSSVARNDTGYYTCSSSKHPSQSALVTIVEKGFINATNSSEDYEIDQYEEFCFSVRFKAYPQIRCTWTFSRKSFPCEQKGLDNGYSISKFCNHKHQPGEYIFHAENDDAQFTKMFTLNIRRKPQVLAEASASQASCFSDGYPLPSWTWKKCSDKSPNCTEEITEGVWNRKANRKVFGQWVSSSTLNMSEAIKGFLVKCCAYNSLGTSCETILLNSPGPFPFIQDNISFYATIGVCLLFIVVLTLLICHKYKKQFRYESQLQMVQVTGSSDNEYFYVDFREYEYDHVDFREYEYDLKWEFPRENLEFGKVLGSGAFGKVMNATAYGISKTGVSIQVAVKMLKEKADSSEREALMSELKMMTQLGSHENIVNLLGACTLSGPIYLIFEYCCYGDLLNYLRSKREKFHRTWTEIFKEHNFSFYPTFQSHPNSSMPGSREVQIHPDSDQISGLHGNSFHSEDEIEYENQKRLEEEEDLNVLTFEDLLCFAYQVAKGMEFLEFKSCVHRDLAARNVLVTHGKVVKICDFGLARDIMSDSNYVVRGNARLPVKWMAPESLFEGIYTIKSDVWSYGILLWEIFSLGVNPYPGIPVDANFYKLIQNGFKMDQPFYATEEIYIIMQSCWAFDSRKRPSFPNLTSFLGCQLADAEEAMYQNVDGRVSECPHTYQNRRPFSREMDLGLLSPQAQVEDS
As to the kind of experiment: FLT3-ITD degradation, immunoblot in MV4-11 cells. The note with it: MV4-11, 24 h, read-out: % FLT3-ITD Degradation at 50 nM.

Series [2] deals with FLT3-ITD. As to the kind of experiment: KINOMEscan binding assay. The protocol: Binding to FLT3-ITD was determined using the KINOMEscan^TM assay (Eurofins DiscoverX Corporation, San Diego, CA, USA)
Kinase-tagged T7 phage strains were prepared in an E. coli host derived from the BL21 strain. E. coli were grown to log-phase and infected with T7 phage and incubated with shaking at 32 °C until lysis. The lysates were centrifuged and filtered to remove cell debris. The remaining kinases were produced in HEK-293 cells and subsequently tagged with DNA for qPCR detection. […] The liganded beads were blocked with excess biotin and washed with blocking buffer (SeaBlock (Pierce), 1% BSA, 0.05% Tween 20, 1 mM DTT) to remove unbound ligand and to reduce non-specific binding. […] The compounds were then diluted directly into the assays such that the final concentration of DMSO was 0.9%. All reactions performed in polypropylene 384-well plate. Each was a final volume of 0.02 mL. […] The kinase concentration in the eluates was measured by qPCR.

The nature of series [3]: Non-enzymatic stability under cellular assay conditions (HPLC). The class given is physicochemical. The note with it: compound remaining, assay medium DMEM, 37 °C. As to the method: An important aspect in the development of PROTACs is testing chemical stability. On the one hand, we tested all PROTACs produced for their stability under cellular assay conditions. For this purpose, 10 µM solutions of the PROTACs and reference inhibitor were incubated for 72 h at 37 °C with the assay medium DMEM. The remaining amount of the compounds was determined by HPLC after 6, 12, 24, 48 and 72 h. The results of the stability studies are shown in Table S2 (Supplementary Information).
The developed compounds were diluted in the assay media consisting of a mixture of DMEM (50%), DMSO (10%) and acetonitrile (40%) at pH 7.4 and incubated at 37 °C for 72 h. The quantity of the compounds was measured after 6, 12, 24, 48, and 72 h by HPLC using an XTerra RP18 column ([…], 3.9 mm × 100 mm) from the manufacturer Waters (Milford, MA, USA) and two LC-10AD pumps, an SPD-M10AVP PDA detector, and an SIL-HT autosampler, all from the manufacturer Shimadzu (Kyoto, Japan).

For another series, the target named is CSNK1D (Homo sapiens, UniProt P48730). Description: NanoBRET CELLinib128. Background: BRET reads energy transfer from a luciferase to a nearby fluorophore.
Chain of CSNK1D (P48730 whole entry): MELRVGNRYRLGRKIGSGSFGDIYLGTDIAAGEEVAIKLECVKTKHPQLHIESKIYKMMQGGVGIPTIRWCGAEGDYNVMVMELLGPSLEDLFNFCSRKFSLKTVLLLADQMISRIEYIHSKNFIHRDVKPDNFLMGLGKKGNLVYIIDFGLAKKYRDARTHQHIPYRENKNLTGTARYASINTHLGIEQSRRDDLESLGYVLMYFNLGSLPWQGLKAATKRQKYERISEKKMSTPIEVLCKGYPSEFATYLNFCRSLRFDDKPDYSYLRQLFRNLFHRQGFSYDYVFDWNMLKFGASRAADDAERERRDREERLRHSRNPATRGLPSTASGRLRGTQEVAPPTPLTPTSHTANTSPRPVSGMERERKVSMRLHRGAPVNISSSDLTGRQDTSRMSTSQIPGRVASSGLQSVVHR

Consider `Cc1c(NC(=O)CN2CCN(CC3CCN(c4ccc5c(c4)C(=O)N(C4CCC(=O)NC4=O)C5=O)CC3)CC2)c[nH]c1/C=C1\C(=O)Nc2ccc(F)cc21` (stereo not shown) [A20], for which the IC50 in the series with MV4-11 is 39.9 ± 3.4 nM; in the series on MOLM-13 it was 170 ± 3.4 nM.

For the compound `CCc1nc(C(N)=O)c(Nc2ccc(N3CCC(N4CCN(C(=O)COc5cccc6c5CN(C5CCC(=O)NC5=O)C6=O)CC4)CC3)c(OC)c2)nc1NC1CCOCC1` (stereo not shown) [LWY713], the IC50 with MV4-11 is 1.5 nM.

With `Cc1ncsc1-c1ccc([C@H](C)NC(=O)[C@@H]2C[C@@H](O)CN2C(=O)[C@@H](NC(=O)CCCCCCCNC(=O)c2cc(Oc3ccc(NC(=O)Nc4cc(C(C)(C)C)on4)cc3)ccn2)C(C)(C)C)cc1` [MA73, 4-(4-(3-(5-(tert-Butyl)isoxazol-3-yl)ureido)phenoxy)-N-(8-(((S)-1-((2S,4R)-4-hydroxy-2-(((S)-1-(4-(4-methylthiazol-5-yl)phenyl)ethyl)carbamoyl)pyrrolidin-1-yl)-3,3-dimethyl-1-oxobutan-2-yl)amino)-8-oxooctyl)picolinamide], the inhibition at 0.05 µM on FLT3-ITD [1] was 80%. The “% FLT3-ITD Binding at 1 µM” value in the series on FLT3-ITD [2] came out at 84 ± 1%. In addition, in series [3], the “0 h - %” value is listed as 100%, the 6 h- % was 101.2%, the 12 h- % came to 101.3% and the 24 h- % was determined as 102.2%. In series [3], the 48 h- % is 103.3% and the 72 h- % was 106.1%.

For the compound `Cc1ncsc1-c1ccc([C@H](C)NC(=O)[C@@H]2C[C@@H](O)CN2C(=O)[C@@H](NC(=O)CCOCCOCCNC(=O)c2cc(Oc3ccc(NC(=O)Nc4cc(C(C)(C)C)on4)cc3)ccn2)C(C)(C)C)cc1` [MA74, 4-(4-(3-(5-(tert-Butyl)isoxazol-3-yl)ureido)phenoxy)-N-(2-(2-(3-(((S)-1-((2S,4R)-4-hydroxy-2-(((S)-1-(4-(4-methylthiazol-5-yl)phenyl)ethyl)carbamoyl)pyrrolidin-1-yl)-3,3-dimethyl-1-oxobutan-2-yl)amino)-3-oxopropoxy)ethoxy)ethyl)picolinamide], the inhibition at 0.05 µM at FLT3-ITD [1] turned out to be 90%. For the same compound, the “% FLT3-ITD Binding at 1 µM” value with FLT3-ITD [2] came to 89 ± 2%. Also, in series [3], the “0 h - %” value stood at 100%, the 6 h- % is reported as 101.4%, the 12 h- % was found to be 101.4% and the 24 h- % turned out to be 101.8%. In addition, in series [3], the 48 h- % is 102.6% and the 72 h- % came out at 103.1%.

For `Cc1ncsc1-c1ccc([C@H](C)NC(=O)[C@@H]2C[C@@H](O)CN2C(=O)[C@@H](NC(=O)CCCCCCNC(=O)c2cc(Oc3ccc(NC(=O)Nc4cc(C(C)(C)C)on4)cc3)ccn2)C(C)(C)C)cc1` [MA77, 4-(4-(3-(5-(tert-Butyl)isoxazol-3-yl)ureido)phenoxy)-N-(7-(((S)-1-((2S,4R)-4-hydroxy-2-(((S)-1-(4-(4-methylthiazol-5-yl)phenyl)ethyl)carbamoyl)pyrrolidin-1-yl)-3,3-dimethyl-1-oxobutan-2-yl)amino)-7-oxoheptyl)picolinamide], the inhibition at 0.05 µM at FLT3-ITD [1] came to 80%. In the series with FLT3-ITD [2], the “% FLT3-ITD Binding at 1 µM” value came out at 89 ± 2%. In series [3], the “0 h - %” value turned out to be 100%, the 6 h- % is recorded as 99.6%, the 12 h- % was determined as 99.6% and the 24 h- % is listed as 99.9%. In series [3], this compound had a 48 h- % of 100.5% and a 72 h- % of 100.7%.

For the compound `Cc1ncsc1-c1ccc([C@H](C)NC(=O)[C@@H]2C[C@@H](O)CN2C(=O)[C@@H](NC(=O)CCCCCNC(=O)c2cc(Oc3ccc(NC(=O)Nc4cc(C(C)(C)C)on4)cc3)ccn2)C(C)(C)C)cc1` [MA78, 4-(4-(3-(5-(tert-Butyl)isoxazol-3-yl)ureido)phenoxy)-N-(6-(((S)-1-((2S,4R)-4-hydroxy-2-(((S)-1-(4-(4-methylthiazol-5-yl)phenyl)ethyl)carbamoyl)pyrrolidin-1-yl)-3,3-dimethyl-1-oxobutan-2-yl)amino)-6-oxohexyl)picolinamide], the inhibition at 0.05 µM on FLT3-ITD [1] was determined as 80%. The “% FLT3-ITD Binding at 1 µM” value in the series with FLT3-ITD [2] was 89 ± 2%. In series [3], the “0 h - %” value is on record as 100%, the 6 h- % is 99.5%, the 12 h- % was found to be 99.5% and the 24 h- % worked out at 99.9%. Moreover, in series [3], the 48 h- % is given as 100.6% and the 72 h- % was 101.0%.

Consider `Cc1ncsc1-c1ccc(CNC(=O)[C@@H]2C[C@@H](O)CN2C(=O)[C@@H](NC(=O)CCOCCOCCOc2ccc3c(c2)sc2nc(-c4ccc(NC(=O)Nc5cc(C(C)(C)C)on5)cc4)cn23)C(C)(C)C)cc1` [Quizaritinib-based PROTAC], for which the IC50 with MV4-11 is 0.6 ± 0.08 nM.

Compound `CN[C@@H]1C[C@H]2O[C@@](C)([C@@H]1OC)n1c3ccccc3c3c4c(c5c6ccccc6n2c5c31)C(=O)NC4` [Staurosporine] had an EC50 at CSNK1D of 10400 nM.

As for `CCc1nc(C(N)=O)c(Nc2ccc(N3CCN(CCC4CCN(CC(=O)N[C@H](C(=O)N5C[C@H](O)C[C@H]5C(=O)N[C@@H](C)c5ccc(-c6scnc6C)cc5)C(C)(C)C)CC4)CC3)c(OC)c2)nc1NC1CCOCC1` [Z29], the IC50 in the series on MV4-11 was 5.5 ± 0.2 nM; with MOLM-13, 8 ± 0.2 nM.

On to `CNC(=O)c1cc(Cl)ccn1` [compound 1], for which the IC50 in the series with MV4-11 was 18.7 ± 2.1 nM; with MOLM-13, 10.1 ± 1 nM.

For the compound `Nc1ccc(O)cc1` [compound 2], the IC50 in the series with MV4-11 is 9.2 ± 1 nM; in the series on MOLM-13, 9.5 ± 0.7 nM.
